Tests used:
Experiment in all cases: Kinase selectivity, DiscoverX scanMAX Kinase assay panel (% control)
Type in all cases: binding
[1] = target: T1, kinases of the scanMAX Kinase assay panel (Homo sapiens, UniProt Q9BXA7); conditions: kinase TSSK1B; 1 uM in DMSO
T1 construct: purchased DiscoverX Co. (contract measurement) scanMAX Kinase assay panel
T1 sequence (Q9BXA7 1-367): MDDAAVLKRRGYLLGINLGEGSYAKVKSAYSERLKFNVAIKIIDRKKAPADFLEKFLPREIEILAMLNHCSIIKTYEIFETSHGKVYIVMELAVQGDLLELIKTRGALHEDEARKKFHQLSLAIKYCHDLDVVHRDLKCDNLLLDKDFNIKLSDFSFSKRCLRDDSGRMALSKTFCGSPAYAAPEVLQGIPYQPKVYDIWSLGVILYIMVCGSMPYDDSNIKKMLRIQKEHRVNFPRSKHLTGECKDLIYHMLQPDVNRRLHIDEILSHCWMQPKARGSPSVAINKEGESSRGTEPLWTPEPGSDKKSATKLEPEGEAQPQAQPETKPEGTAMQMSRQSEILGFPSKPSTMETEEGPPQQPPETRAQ
Outline: (§1)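 Compounds were tested at 1 uM (in DMSO) against each panel kinase. % control was calculated as (compound − positive control)/(negative control − positive control)×100, where the positive control gives 0% and DMSO gives 100%. Activity toward a kinase was called at % control <35%.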

[2] = target: T2, kinases of the scanMAX Kinase assay panel (Homo sapiens, UniProt P53671); conditions: LIMK2; 1 uM
T2 construct: purchased DiscoverX Co. (contract measurement) scanMAX Kinase assay panel
Outline: as §1

[3] = target: T3, kinases of the scanMAX Kinase assay panel (Homo sapiens, UniProt P42336, E545K); conditions: PIK3CA(E545K); 1 uM
T3 construct: purchased DiscoverX Co. (contract measurement) scanMAX Kinase assay panel
Outline: as §1

[4] = target: T4, kinases of the scanMAX Kinase assay panel (Mycobacterium tuberculosis, UniProt P9WI81); conditions: read-out: % control
T4 construct: purchased DiscoverX Co. (contract measurement) scanMAX Kinase assay panel
Outline: as §1

[5] = target: T5, kinases of the scanMAX Kinase assay panel (Homo sapiens, UniProt P49759); conditions: CLK1; 1 uM
T5 construct: purchased DiscoverX Co. (contract measurement) scanMAX Kinase assay panel
Outline: as §1

[6] = target: T6, kinases of the scanMAX Kinase assay panel (Homo sapiens, UniProt P08922); conditions: kinase ROS1; 1 uM in DMSO
T6 construct: purchased DiscoverX Co. (contract measurement) scanMAX Kinase assay panel
Outline: as §1

[7] = target: T7, kinases of the scanMAX Kinase assay panel (Homo sapiens, UniProt Q9Y6E0); conditions: MST3; 1 uM
T7 construct: purchased DiscoverX Co. (contract measurement) scanMAX Kinase assay panel
Outline: as §1

[8] = target: T8, kinases of the scanMAX Kinase assay panel (Homo sapiens, UniProt P50613); conditions: CDK7; 1 uM
T8 construct: purchased DiscoverX Co. (contract measurement) scanMAX Kinase assay panel
Outline: as §1

[9] = target: T9, kinases of the scanMAX Kinase assay panel (Homo sapiens, UniProt Q9HCP0); conditions: CSNK1G1; 1 uM
T9 construct: purchased DiscoverX Co. (contract measurement) scanMAX Kinase assay panel
Outline: as §1

[10] = target: T10, kinases of the scanMAX Kinase assay panel (Homo sapiens, UniProt O75914); conditions: PAK3; 1 uM
T10 construct: purchased DiscoverX Co. (contract measurement) scanMAX Kinase assay panel
Outline: as §1

[11] = target: T11, kinases of the scanMAX Kinase assay panel (Homo sapiens, UniProt P49761); conditions: CLK3; 1 uM
T11 construct: purchased DiscoverX Co. (contract measurement) scanMAX Kinase assay panel
Outline: as §1

[12] = target: T12, kinases of the scanMAX Kinase assay panel (Homo sapiens, UniProt P54764); conditions: EPHA4; 1 uM
T12 construct: purchased DiscoverX Co. (contract measurement) scanMAX Kinase assay panel
Outline: as §1

[13] = target: T13, kinases of the scanMAX Kinase assay panel (Homo sapiens, UniProt Q86UE8); conditions: kinase TLK2; 1 uM in DMSO
T13 construct: purchased DiscoverX Co. (contract measurement) scanMAX Kinase assay panel
Outline: as §1

[14] = target: T14, kinases of the scanMAX Kinase assay panel (Homo sapiens, UniProt P37173); conditions: kinase TGFBR2; 1 uM in DMSO
T14 construct: purchased DiscoverX Co. (contract measurement) scanMAX Kinase assay panel
Outline: as §1

[15] = target: T15, kinases of the scanMAX Kinase assay panel (Homo sapiens, UniProt P00533, T790M); conditions: EGFR(T790M); 1 uM
T15 construct: purchased DiscoverX Co. (contract measurement) scanMAX Kinase assay panel
Outline: as §1

T10 sequence (O75914 whole entry): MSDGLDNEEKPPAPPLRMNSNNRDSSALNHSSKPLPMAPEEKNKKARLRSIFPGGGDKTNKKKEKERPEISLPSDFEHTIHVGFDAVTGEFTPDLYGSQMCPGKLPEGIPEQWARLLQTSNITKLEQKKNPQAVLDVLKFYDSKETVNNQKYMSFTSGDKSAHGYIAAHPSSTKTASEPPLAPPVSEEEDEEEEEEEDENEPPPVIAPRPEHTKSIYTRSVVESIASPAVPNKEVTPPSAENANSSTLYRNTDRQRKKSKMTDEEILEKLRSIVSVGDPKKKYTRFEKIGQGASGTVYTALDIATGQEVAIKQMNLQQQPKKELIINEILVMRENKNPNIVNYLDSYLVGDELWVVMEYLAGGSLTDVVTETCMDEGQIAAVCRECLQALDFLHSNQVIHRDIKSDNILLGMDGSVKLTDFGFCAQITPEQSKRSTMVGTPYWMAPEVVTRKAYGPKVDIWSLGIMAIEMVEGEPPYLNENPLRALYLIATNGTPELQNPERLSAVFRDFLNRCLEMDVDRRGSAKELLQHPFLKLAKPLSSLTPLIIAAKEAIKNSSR
T8 sequence (P50613 whole entry): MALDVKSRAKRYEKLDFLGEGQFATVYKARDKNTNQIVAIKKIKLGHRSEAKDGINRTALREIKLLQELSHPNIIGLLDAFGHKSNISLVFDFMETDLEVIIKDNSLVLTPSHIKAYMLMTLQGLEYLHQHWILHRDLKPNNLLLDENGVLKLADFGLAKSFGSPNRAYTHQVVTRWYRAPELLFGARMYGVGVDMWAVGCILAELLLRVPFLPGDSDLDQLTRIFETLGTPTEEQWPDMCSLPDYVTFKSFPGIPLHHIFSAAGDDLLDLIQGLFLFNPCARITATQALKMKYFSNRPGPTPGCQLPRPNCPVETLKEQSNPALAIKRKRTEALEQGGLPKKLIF
T2 sequence (P53671 whole entry): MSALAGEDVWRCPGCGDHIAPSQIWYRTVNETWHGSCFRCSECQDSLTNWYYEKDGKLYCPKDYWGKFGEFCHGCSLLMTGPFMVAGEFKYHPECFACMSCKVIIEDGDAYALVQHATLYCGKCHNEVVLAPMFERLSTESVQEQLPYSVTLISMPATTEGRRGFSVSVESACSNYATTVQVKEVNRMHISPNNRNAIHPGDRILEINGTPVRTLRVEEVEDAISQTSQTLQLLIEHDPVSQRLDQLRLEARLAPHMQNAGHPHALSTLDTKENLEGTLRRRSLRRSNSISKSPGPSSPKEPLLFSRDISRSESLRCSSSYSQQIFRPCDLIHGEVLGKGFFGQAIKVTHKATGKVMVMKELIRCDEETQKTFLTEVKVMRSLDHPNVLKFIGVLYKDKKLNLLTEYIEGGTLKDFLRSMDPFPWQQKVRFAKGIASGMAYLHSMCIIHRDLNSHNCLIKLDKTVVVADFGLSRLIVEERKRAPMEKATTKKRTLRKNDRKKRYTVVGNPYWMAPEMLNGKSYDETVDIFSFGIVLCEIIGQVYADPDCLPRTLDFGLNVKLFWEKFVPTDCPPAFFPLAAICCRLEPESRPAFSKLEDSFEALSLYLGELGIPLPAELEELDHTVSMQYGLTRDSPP
T12 sequence (P54764 20-986): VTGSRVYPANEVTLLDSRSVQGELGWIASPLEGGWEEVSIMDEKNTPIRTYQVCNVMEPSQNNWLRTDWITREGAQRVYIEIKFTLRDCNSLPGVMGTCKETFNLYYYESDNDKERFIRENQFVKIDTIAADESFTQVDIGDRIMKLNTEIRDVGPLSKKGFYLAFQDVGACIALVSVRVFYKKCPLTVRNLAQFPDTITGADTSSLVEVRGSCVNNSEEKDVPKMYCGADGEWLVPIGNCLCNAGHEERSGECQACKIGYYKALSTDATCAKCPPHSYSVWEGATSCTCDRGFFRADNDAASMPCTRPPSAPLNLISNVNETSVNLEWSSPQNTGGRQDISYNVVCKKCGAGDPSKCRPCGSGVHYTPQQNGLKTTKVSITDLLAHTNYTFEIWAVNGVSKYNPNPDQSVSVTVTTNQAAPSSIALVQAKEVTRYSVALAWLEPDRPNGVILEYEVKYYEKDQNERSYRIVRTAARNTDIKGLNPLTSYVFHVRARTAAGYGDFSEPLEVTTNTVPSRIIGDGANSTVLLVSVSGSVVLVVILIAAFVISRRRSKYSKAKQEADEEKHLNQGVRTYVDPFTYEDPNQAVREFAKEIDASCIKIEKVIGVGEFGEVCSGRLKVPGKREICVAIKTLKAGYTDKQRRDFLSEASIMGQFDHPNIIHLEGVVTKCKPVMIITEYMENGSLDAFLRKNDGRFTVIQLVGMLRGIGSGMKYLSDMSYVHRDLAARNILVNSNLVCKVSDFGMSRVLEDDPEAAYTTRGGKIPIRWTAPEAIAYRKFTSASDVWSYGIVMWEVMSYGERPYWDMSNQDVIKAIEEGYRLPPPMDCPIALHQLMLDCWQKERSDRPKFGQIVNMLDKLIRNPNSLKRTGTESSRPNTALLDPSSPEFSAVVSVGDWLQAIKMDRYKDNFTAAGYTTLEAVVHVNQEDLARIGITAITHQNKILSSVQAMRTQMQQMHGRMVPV
T13 sequence (Q86UE8 whole entry): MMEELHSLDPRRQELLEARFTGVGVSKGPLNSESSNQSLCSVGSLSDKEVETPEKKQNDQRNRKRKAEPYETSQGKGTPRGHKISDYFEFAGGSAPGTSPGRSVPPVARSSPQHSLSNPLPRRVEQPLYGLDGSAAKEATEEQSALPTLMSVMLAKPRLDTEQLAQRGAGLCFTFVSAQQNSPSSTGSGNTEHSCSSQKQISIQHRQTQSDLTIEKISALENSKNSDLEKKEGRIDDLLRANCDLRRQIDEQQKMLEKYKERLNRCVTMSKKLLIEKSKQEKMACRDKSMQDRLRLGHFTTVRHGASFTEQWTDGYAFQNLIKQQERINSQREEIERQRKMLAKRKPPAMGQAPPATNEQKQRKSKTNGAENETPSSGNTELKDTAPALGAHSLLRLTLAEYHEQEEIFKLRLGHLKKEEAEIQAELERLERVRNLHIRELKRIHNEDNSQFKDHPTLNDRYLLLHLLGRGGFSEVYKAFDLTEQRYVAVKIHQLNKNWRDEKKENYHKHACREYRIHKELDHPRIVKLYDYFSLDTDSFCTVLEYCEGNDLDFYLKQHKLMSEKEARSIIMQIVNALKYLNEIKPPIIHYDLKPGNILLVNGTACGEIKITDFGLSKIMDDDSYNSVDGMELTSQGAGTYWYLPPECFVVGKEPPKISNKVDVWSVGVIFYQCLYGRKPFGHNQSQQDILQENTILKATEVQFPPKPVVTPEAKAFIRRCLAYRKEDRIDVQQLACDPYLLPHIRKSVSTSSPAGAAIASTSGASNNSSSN
T9 sequence (Q9HCP0 whole entry): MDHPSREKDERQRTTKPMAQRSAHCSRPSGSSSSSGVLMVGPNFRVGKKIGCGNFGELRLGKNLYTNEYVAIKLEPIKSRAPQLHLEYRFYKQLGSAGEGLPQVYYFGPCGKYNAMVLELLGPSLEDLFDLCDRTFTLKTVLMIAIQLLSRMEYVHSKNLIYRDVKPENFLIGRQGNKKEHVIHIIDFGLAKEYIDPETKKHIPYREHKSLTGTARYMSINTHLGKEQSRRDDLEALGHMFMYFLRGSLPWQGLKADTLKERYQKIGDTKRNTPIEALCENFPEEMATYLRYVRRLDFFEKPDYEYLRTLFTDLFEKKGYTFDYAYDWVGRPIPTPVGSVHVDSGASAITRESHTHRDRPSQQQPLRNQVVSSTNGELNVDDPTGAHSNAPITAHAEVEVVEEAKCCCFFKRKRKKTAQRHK
T14 sequence (P37173 23-567): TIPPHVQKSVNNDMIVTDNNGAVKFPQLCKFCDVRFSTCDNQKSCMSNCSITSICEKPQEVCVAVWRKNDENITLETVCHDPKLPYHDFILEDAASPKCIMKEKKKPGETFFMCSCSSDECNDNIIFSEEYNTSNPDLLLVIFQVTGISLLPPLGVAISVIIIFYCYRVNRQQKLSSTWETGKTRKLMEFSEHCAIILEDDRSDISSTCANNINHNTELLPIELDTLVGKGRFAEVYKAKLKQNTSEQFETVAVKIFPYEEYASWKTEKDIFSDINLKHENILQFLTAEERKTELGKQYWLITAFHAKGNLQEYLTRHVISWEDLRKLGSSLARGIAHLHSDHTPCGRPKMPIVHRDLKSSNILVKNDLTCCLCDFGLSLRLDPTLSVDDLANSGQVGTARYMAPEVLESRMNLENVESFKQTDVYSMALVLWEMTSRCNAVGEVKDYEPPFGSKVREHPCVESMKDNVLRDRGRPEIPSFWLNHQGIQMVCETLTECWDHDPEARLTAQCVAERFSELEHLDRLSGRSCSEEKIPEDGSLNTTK
T11 sequence (P49761 whole entry): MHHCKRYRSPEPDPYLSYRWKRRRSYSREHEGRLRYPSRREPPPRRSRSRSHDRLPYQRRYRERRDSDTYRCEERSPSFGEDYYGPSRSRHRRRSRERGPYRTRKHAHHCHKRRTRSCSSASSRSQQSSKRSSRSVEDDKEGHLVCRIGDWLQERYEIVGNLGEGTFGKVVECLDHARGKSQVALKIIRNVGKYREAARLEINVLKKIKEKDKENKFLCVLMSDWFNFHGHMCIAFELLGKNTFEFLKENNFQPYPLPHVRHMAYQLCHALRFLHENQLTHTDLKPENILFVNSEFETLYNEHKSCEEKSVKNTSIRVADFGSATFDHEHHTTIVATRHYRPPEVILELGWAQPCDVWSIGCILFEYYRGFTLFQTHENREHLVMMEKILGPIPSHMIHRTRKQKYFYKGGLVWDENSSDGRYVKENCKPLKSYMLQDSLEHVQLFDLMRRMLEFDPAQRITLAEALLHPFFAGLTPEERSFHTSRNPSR

| SMILES | remaining binding at 1 µM [1] [%] | remaining binding at 1 µM [2] [%] | remaining binding at 1 µM [3] [%] | remaining binding at 1 µM [4] [%] | remaining binding at 1 µM [5] [%] | remaining binding at 1 µM [6] [%] | remaining binding at 1 µM [7] [%] | remaining binding at 1 µM [8] [%] | remaining binding at 1 µM [9] [%] | remaining binding at 1 µM [10] [%] | remaining binding at 1 µM [11] [%] | remaining binding at 1 µM [12] [%] | remaining binding at 1 µM [13] [%] | remaining binding at 1 µM [14] [%] | remaining binding at 1 µM [15] [%] |
| --- | --- | --- | --- | --- | --- | --- | --- | --- | --- | --- | --- | --- | --- | --- | --- |
| CNc1nc(Nc2ccc(C(=O)N3CCOCC3)cc2OC)nc2[nH]cc(C#N)c12 [Example 1, 2-((2-methoxy-4-(morpholine-4-carbonyl)phenyl)amino)-4-(methylamino)-7H-pyrrolo[2,3-d]pyrimidine-5-carbonitrile] | 22 | 94 | 80 | 90 | 1.8 | 56 | 86 | 67 | 95 | 68 | 70 | 93 | 95 | 82 | 61 |
| CC1(Nc2nc(Nc3cnn([C@H]4CCN(C5COC5)C[C@@H]4F)c3Cl)nc3[nH]cc(C#N)c23)CC1 [Example 52, 2-((5-chloro-1-((3S,4S)-3-fluoro-1-(oxetane-3-yl)piperidine-4-yl)-1H-pyrazole-4-yl)amino)((1-methylcyclopropyl)amino)-7H-pyrrolo[2,3-d]pyrimidine-5-carbonitrile] | 0.6 | 65 | 68 | 1.1 | 0.6 | 23 | 25 | 19 | 6.4 | 17 | 27 | 75 | 42 | 100 | 1.3 |
| CCNc1nc(Nc2ccc(C(=O)N3CCC(N4CCOCC4)CC3)cc2OC)nc2[nH]cc(C(F)(F)F)c12 [Example 104, (4-((4-(ethylamino)-5-(trifluoromethyl)-7H-pyrrolo[2,3-d]pyrimidine-2-yl)amino)-3-methoxyphenyl)(4-morpholinopiperidine-1-yl)methanone] | 0 | 99 | 90 | 83 | 0.15 | 22 | 84 | 48 | 73 | 100 | 4 | 100 | 93 | 96 | 41 |

Reference: patent US11208412B2 (DAEGU-GYEONGBUK MEDICAL INNOVATION FOUNDATION, priority 2017, dated 2021)
